In one test the test system is porcine liver CES. As to the kind of experiment: In vitro CES inhibition (4-NPA substrate). The format is biochemical. As to conditions: compound 20 µM, n.a. = not active. An excerpt:
(§1) Assessment of the esterase profile of new potential anti-AD molecules enables the estimation of both the primary pharmacological effects of the tested compounds—their inhibition of AChE and BChE—and their possible unwanted side effect—inhibition of CES, which hydrolyzes numerous ester-containing drugs. For the esterase profile evaluation, human erythrocyte AChE, equine serum BChE, and porcine liver CES were used. These sources of BChE and CES were employed because of their relatively low cost, high sequence identity to human enzymes, and the exploratory character of this work.
(§2) Chromophore absorbances were measured with a FLUOStar Optima microplate reader (BMG Labtech, Ortenberg, Germany). […] Initially, we used a single concentration of 20 µM for all compounds.

The next test has as its target T1, EeAChE PAS (Electrophorus electricus, UniProt O42275).
T1 construct: The enzyme was electric eel AChE (EeAChE type VI-S, lyophilized powder, Sigma-Aldrich); purchased Sigma-Aldrich type VI-S; host or cells: electric eel (tissue-derived)
The format is binding. As to conditions: compound 20 µM; EeAChE 7 µM; propidium iodide 8 µM. An excerpt: This method is widely used as a screening approach to assess the potential ability of compounds to block AChE-induced β-amyloid aggregation. This is because when the compounds bind to the AChE PAS, they prevent the binding of β-amyloid, thereby inhibiting its aggregation.
The enzyme was electric eel AChE (EeAChE type VI-S, lyophilized powder, Sigma-Aldrich). We selected this source of AChE for consistency with our other reports and because of the purity, specific activity, and lower cost compared to human AChE.
Propidium iodide (final concentration 8 μM) was then added for a further 15 min incubation, and the fluorescence spectrum was taken (530 nm excitation and 600 nm emission) using a FLUOStar Optima microplate reader. The same concentration of propidium iodide in the Tris buffer was used as the blank. Triplicate determinations were recorded and the results were calculated via the following equation:% Displacement = 100 − (IFAChE+ Propidium + inhibitor/IFAChE + Propidium) × 100, where IFAChE + Propidium = fluorescence intensity of propidium iodide associated with AChE in the absence of the test compound (taken as 100%), and IFAChE + Propidium + inhibitor = fluorescence intensity of propidium iodide associated with AChE in the presence of the test compound.

The target in a further test is β-amyloid (1–42) (Aβ42) (Homo sapiens, UniProt P05067). As to the kind of experiment: Inhibition of Aβ42 self-aggregation (thioflavin T). The format is biochemical. As to conditions: for inhibition at 100 µM: read-out: Inhibition of Aβ42 Self-Aggregation. As for the experimental part: The inhibitory activity of tested hybrids against the self-aggregation of Aβ42 was determined in vitro using the thioflavin T (ThT) fluorimetric assay. According to [84], the ThT test is ideal for preliminary screening of inhibitors of Aβ42 self-aggregation, as it enables the quantitative testing of large numbers of compounds within a relatively short time.
Chain of β-amyloid (1–42) (Aβ42) (P05067 672-713 limits assumed): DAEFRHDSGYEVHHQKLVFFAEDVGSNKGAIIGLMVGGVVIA
The influence of the inhibitory effect of the test compounds toward Aβ42 self-aggregation was determined using the thioflavin T (ThT) fluorescence method with minor modifications. This assay is based on a specific interaction between the fluorescent dye thioflavin T that binds to the β-sheets of assembled amyloid fibrils leading to a significant increase in fluorescence signal. Therefore, the decrease in ThT fluorescence correlates with the ability of the studied compounds to inhibit the formation of amyloid aggregates.
One mg of lyophilized HFIP-pretreated Aβ42 from BACHEM (Bubendorf, Switzerland) was dissolved in DMSO to obtain a stable initial solution ([Aβ42] = 500 μM); then it was aliquoted and stored at −20 °C.
For the measurement of Aβ42 self-aggregation and amyloid fibril inhibition studies by the tested compounds, aliquots of 500 μM Aβ42 stock solution were diluted in 215 mM Na-phosphate buffer pH = 8.0 to a final concentration of 50 μM Aβ42. Then the samples were incubated for 24 h at 37 °C without stirring in the absence (base level of Aβ42 self-aggregation, control) or presence of the test compounds. Myricetin and propidium iodide were used as reference compounds (positive controls). All compounds were used in a concentration of 100 µM. To quantify Aβ42 fibril formation, after incubation, 5 μM ThT in 50 mM glycine-NaOH buffer pH 8.5 was added to the solutions to a final concentration of 4 μM ThT and the fluorescence was measured at 440 nm (excitation) and 485 nm (emission). Analyses were performed with a FLUOStar Optima microplate reader (LabTech, Ortenberg, Germany). The blanks consisted of 215 mM Na-phosphate buffer, pH = 8.0, 20% (v/v) DMSO or test compounds, respectively. Each assay was run in triplicate.

Test [1] is described as follows: ABTS radical cation scavenging assay. Details: key to ABTS^•+ Scavenging Activity, TEAC: TEAC: ratio of compound slope to Trolox slope (Trolox equivalents). To be noted: 1 h incubation; for IC50: 50% reduction of ABTS radical cation; for ABTS^•+ Scavenging Activity, TEAC: Trolox equivalent, n.a. = not active. As for the experimental part:
In the ABTS assay, the dark-green ABTS cation-radical (ABTS^•+) is quenched by interaction with AOs. The consequent decrease in absorbance is followed spectrophotometrically per the previously described method.
Radical scavenging activity of the compounds was assessed using the ABTS radical cation (ABTS^•+) decolorization assay with some modifications. ABTS (2,2′-azinobis-(3-ethylbenzothiazoline-6-sulfonic acid) was purchased from Tokyo Chemical Industry Co., Ltd. (Tokyo, Japan); potassium persulfate (dipotassium peroxodisulfate), Trolox (6-hydroxy-2,5,7,8-tetramethylchroman-2-carboxylic acid), and HPLC-grade ethanol and DMSO were obtained from Sigma-Aldrich (Saint Louis, MO, USA). Aqueous solutions were prepared using deionized water. All tested compounds were dissolved in DMSO.
The solution of cation radical ABTS^•+ was produced by incubation of an aqueous solution of 7 mM ABTS and 2.45 mM potassium persulfate solution in equal quantities for 12–16 h at room temperature in the dark. Radical scavenging capacity of the compounds was analyzed by mixing 10 μL of compound with 240 μL of ABTS^•+ working solution in ethanol (100 μM final concentration). The reaction was monitored for an hour at 30 °C with an interval of 10 min. Data are given for 1 h of incubation of compounds with ABTS^•+. The reduction in absorbance was measured spectrophotometrically at 734 nm using an xMark microplate UV/VIS spectrophotometer (Bio-Rad, Hercules, CA, USA). Ethanol blanks were run in each assay. Values were obtained from five replicates of each sample and three independent experiments.
The standard AO Trolox was used as a reference compound. AO capacity as Trolox equivalent (TEAC) values was determined as the ratio between the slopes obtained from the linear correlation of the ABTS radical absorbance with the concentrations of tested compounds and Trolox. Ascorbic acid was used as a positive control. […]. The compounds were tested in the concentration range of 0.5–100 µM.

A further test is described as follows: FRAP assay. To be noted: Trolox equivalents; 60 min, 37 °C; n.a. = not active. As for the experimental part: The Ferric Reducing Antioxidant Power (FRAP) test involves reduction of the ferric 2,4,6-tripyridyl-s-triazine complex [Fe(TPTZ)2]^3+ to an intense-blue ferrous complex [Fe(TPTZ)2]^2+ [92], as previously reported. Results are given as Trolox Equivalents (TE).
The FRAP (ferric reducing antioxidant power) assay proposed by Benzie and Strain [92] was modified to be performed in 96-well microplates as described in detail in [53]. The FRAP reagent contained 2.5 mL of 10 mM TPTZ (2,4,6-tris(2-pyridyl)-s-triazine, Sigma-Aldrich) solution in 40 mM HCl, 2.5 mL of 20 mM FeCl3 (Sigma-Aldrich) in distilled water and 25 mL of 0.3 M acetate buffer (pH 3.6). Aliquots of 10 µL of the test compound dissolved in DMSO (0.5 mM) were placed in quadruplicate. Absorbance was measured at a wavelength of 593 nm after 60 min incubation at 37 °C. In each case, Trolox was used as a reference compound to obtain the standard curve. The AO activity was calculated with respect to the activity of Trolox and expressed as Trolox equivalents (TE)—the values calculated as the ratio of the concentrations of Trolox and the test compound resulting in the same effect on ferric reducing activity.

A further test has as its target T2, equine serum BChE (Equus caballus, UniProt P81908).
T2 construct: human erythrocyte AChE, equine serum BChE, and porcine liver CES were used; purchased Sigma-Aldrich; host or cells: equine serum (tissue-derived)
As to the kind of experiment: biochemical. As to conditions: mean ± SEM, n = 3, read-out: Inhibitory activity against BChE, IC50.
Source text: as §1, §2

The next test has as its target T3, human erythrocyte AChE (Homo sapiens, UniProt P22303).
T3 construct: human erythrocyte AChE, equine serum BChE, and porcine liver CES were used; purchased Sigma-Aldrich; host or cells: human erythrocytes (tissue-derived)
As to the kind of experiment: biochemical. To be noted: mean ± SEM, n = 3, read-out: Inhibitory activity against AChE, IC50.
Source text: as §1, §2

Where [2] appears, read: Aβ42 50 µM, compound 100 µM, 24 h, 37 °C, thioflavin T.

Values joined by “and” are separate entries in the source; they are usually repeats but may differ in a detail not shown here. Equal values may be shown once. Read-outs that look alike come from different tables or passages of the source.

T1 sequence (O42275 24-633): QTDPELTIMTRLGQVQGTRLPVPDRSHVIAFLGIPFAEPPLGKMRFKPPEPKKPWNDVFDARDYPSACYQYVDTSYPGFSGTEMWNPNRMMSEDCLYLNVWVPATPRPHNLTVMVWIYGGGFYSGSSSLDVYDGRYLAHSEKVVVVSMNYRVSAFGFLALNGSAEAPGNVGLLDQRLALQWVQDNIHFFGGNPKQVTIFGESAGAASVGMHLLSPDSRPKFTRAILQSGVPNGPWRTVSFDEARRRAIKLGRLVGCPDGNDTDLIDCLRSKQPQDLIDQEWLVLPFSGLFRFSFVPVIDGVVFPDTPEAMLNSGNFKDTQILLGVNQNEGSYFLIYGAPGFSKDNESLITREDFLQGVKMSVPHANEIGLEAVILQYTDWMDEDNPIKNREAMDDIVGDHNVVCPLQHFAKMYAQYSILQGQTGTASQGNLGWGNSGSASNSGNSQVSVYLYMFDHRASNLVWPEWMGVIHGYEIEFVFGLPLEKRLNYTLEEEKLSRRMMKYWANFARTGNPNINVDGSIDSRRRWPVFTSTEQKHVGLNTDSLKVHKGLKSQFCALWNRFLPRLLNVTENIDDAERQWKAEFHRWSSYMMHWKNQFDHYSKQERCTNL
T2 sequence (P81908 whole entry): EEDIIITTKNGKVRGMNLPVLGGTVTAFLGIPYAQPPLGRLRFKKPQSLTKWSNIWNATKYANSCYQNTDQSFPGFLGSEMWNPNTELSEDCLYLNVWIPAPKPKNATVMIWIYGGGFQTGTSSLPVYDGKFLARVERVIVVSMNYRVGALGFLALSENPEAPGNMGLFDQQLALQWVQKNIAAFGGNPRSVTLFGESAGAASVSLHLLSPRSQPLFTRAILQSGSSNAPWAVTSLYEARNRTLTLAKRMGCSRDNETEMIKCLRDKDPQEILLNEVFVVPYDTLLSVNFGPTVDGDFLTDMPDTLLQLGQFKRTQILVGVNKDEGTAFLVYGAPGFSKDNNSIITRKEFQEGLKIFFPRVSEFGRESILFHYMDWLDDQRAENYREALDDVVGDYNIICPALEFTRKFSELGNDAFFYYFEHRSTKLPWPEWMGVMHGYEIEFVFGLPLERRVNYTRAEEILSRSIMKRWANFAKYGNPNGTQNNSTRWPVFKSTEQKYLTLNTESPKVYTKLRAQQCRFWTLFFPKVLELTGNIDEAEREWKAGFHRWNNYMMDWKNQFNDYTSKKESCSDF
T3 sequence (P22303 32-617 isoform P22303-2 limits assumed): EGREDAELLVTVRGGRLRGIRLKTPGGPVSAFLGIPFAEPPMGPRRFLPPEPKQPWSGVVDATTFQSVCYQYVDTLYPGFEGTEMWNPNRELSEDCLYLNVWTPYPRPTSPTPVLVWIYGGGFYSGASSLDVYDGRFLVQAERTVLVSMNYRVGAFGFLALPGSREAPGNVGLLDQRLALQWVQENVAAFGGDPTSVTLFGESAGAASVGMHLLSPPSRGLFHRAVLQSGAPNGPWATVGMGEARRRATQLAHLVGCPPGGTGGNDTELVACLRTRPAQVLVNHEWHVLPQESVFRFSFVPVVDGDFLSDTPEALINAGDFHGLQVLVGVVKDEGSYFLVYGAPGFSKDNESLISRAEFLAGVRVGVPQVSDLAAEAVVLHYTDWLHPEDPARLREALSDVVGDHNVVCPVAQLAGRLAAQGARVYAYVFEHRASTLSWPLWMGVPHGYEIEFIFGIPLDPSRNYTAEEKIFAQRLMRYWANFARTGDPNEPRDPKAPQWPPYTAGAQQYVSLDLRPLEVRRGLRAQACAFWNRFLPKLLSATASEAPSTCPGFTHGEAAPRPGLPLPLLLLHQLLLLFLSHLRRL

By inhibition is commonly meant the change of the read-out against control, counted positive when it falls. By IC50 is commonly meant the concentration that inhibits the measured activity by half. Turning to `O=C(NCCCCNc1c2c(nc3ccccc13)CCCC2)c1ccccc1O` [5a], the “Inhibitory activity against CES, inhibition at 20 µM” value (shortened to “Inhibitory activity against CES”) in the test with porcine liver CES came to 1.6 ± 1.1%. On EeAChE PAS, the “Propidium Displacement from EeAChE PAS” value turned out to be 11.8 ± 0.9%. Besides, the inhibition at 100 µM at β-amyloid (1–42) (Aβ42) (setting [2]) was 20.7 ± 1.6%. Further, in test [1], the IC50 came to 25300 ± 1100 nM and the “ABTS^•+ Scavenging Activity, TEAC” value is 0.73 ± 0.04. Also, in the test “FRAP assay”, the “FRAP, TE” value turned out to be 0.02.

Regarding `COc1ccccc1C(=O)NCCCCNc1c2c(nc3ccccc13)CCCC2` [6a], the IC50 amounted to 10.5 ± 0.7 nM on equine serum BChE and 1920 ± 130 nM at human erythrocyte AChE. Moreover, in the test with porcine liver CES, the “Inhibitory activity against CES” value stood at 3.4 ± 0.7%. Also, the “Propidium Displacement from EeAChE PAS” value on EeAChE PAS was 10.2 ± 0.9%. The inhibition at 100 µM on β-amyloid (1–42) (Aβ42) (setting [2]) is 12.3 ± 0.9%. Besides, the “ABTS^•+ Scavenging Activity, TEAC” value in test [1] is on record as 0.02 (n.a.). Also, the “FRAP, TE” value in the test “FRAP assay” was 0.03.

On to `O=C(NCCCCNc1c2c(nc3ccccc13)CCCC2)c1cc(F)c(F)cc1O` [7a, 4,5-Difluoro-2-hydroxy-N-[4-(1,2,3,4-tetrahydroacridin-9-ylamino)butyl]benzamide], for which the IC50 was 29.1 ± 2.2 nM on equine serum BChE, 500 ± 30 nM at human erythrocyte AChE and greater than 200000 nM in test [1]. Moreover, the “Inhibitory activity against CES” value in the test with porcine liver CES is given as 4.3 ± 0.9%. Besides, the “Propidium Displacement from EeAChE PAS” value on EeAChE PAS worked out at 10.4 ± 0.9%. Moreover, the inhibition at 100 µM on β-amyloid (1–42) (Aβ42) (setting [2]) stood at 17.4 ± 1.2%. Further, the “ABTS^•+ Scavenging Activity, TEAC” value in test [1] was 0.06 and 0.060 ± 0.002.

On to `COc1cc(F)c(F)cc1C(=O)NCCCCNc1c2c(nc3ccccc13)CCCC2` [8a, 4,5-Difluoro-2-methoxy-N-[4-(1,2,3,4-tetrahydroacridin-9-ylamino)butyl]benzamide], for which the figures for the IC50 on equine serum BChE and on human erythrocyte AChE were 54.7 ± 3.4 nM and 1220 ± 70 nM, respectively. Also, the “Inhibitory activity against CES” value in the test with porcine liver CES came to 6.5 ± 1.1%. Moreover, at EeAChE PAS, the “Propidium Displacement from EeAChE PAS” value came out at 13.2 ± 1.0%. For the same molecule, the inhibition at 100 µM at β-amyloid (1–42) (Aβ42) (setting [2]) was determined as 10.4 ± 0.9%. In the test “FRAP assay”, the “FRAP, TE” value stood at 0.03.

For the molecule `Oc1ccccc1C=NCCCCNc1c2c(nc3ccccc13)CCCC2` [10a, 2-[4-(1,2,3,4-Tetrahydroacridin-9-ylamino)butyliminomethyl]phenol], the IC50 on equine serum BChE was 127 ± 6 nM; on human erythrocyte AChE, 743 ± 44 nM; in test [1] it was 35800 ± 1900 nM. Besides, in the test on porcine liver CES, the “Inhibitory activity against CES” value is reported as 20.8 ± 0.4%. Moreover, at EeAChE PAS, the “Propidium Displacement from EeAChE PAS” value was 18.6 ± 1.6%. The inhibition at 100 µM on β-amyloid (1–42) (Aβ42) (setting [2]) turned out to be 57.9 ± 4.6%. Besides, in test [1], the “ABTS^•+ Scavenging Activity, TEAC” value was 0.42 ± 0.03. Moreover, the “FRAP, TE” value in “FRAP assay” is 0.02.

Turning to `O=C1O[C@H]([C@@H](O)CO)C(O)=C1O` [Ascorbic acid, reference compound], in test [1], the half-maximal inhibitory concentration (IC50) turned out to be 22600 ± 1200 nM and the “ABTS^•+ Scavenging Activity, TEAC” value turned out to be 0.96 ± 0.03. Also, the “FRAP, TE” value in the test “FRAP assay” was 1.28 ± 0.11.

Take `CC[N+](C)(CC)CCC[n+]1c(-c2ccccc2)c2cc(N)ccc2c2ccc(N)cc21.[I-].[I-]` [Propidium iodide, reference compound]: at β-amyloid (1–42) (Aβ42) (setting [2]), the “Inhibition of Aβ42 Self-Aggregation” value was 90.7 ± 7.1%.

`O=C(O)c1ccccc1O` [Salicylic acid, reference compound]: on equine serum BChE, the IC50 came to 47600 ± 3200 nM. Moreover, the “Inhibitory activity against CES” value with porcine liver CES is given as 8.9 ± 0.6%. The inhibition at 100 µM on β-amyloid (1–42) (Aβ42) is 6.5 ± 1.2%. Moreover, in test [1], the “ABTS^•+ Scavenging Activity, TEAC” value is “no antiradical activity”. Further, the “FRAP, TE” value in the test “FRAP assay” came to 0.02.

As for `Cc1c(C)c2c(c(C)c1O)CCC(C)(C(=O)O)O2` (stereo not shown) [Trolox, 6-hydroxy-2,5,7,8-tetramethylchroman-2-carboxylic acid, reference compound], in test [1], the IC50 was determined as 19800 ± 800 nM and the “ABTS^•+ Scavenging Activity, TEAC” value was determined as 1.00. For the same molecule, the “FRAP, TE” value in the test “FRAP assay” is listed as 1.00.

For the origin of these results see publication PMC9916969 (International Journal of Molecular Sciences, 2023).
